Experimental data from ChEMBL document CHEMBL3621125, “Click-tailed coumarins with potent and selective inhibitory action against the tumor-associated carbonic anhydrases IX and XII” (Bioorg Med Chem, 2015).
pKi: −log10 of the molar value. Values belong to the compound of their own block, whether it stands above or below them.

Experiments:
Carbonic anhydrase 2 = Carbonic anhydrase 2 (Homo sapiens, UniProt P00918); experiment: Inhibition of human carbonic anhydrase 2 incubated for 6 hrs by stopped flow carbon-di-oxide hydrase assay
Carbonic anhydrase 9 = Carbonic anhydrase 9 (Homo sapiens, UniProt Q16790); experiment: Inhibition of human carbonic anhydrase 9 incubated for 6 hrs by stopped flow carbon-di-oxide hydrase assay
Carbonic anhydrase 1 = Carbonic anhydrase 1 (Homo sapiens, UniProt P00915); experiment: Inhibition of human carbonic anhydrase 1 incubated for 6 hrs by stopped flow carbon-di-oxide hydrase assay
Sequence of Carbonic anhydrase 1 (P00915 whole entry): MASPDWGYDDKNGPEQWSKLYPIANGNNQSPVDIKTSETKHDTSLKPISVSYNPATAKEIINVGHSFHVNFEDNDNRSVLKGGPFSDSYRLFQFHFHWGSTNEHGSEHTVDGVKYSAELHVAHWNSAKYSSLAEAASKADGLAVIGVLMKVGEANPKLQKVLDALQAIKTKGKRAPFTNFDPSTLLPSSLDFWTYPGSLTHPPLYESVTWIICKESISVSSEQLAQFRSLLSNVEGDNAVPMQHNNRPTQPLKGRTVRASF

Structure (SMILES): O=c1ccc2ccc(OCc3cn(-c4ccccc4)nn3)cc2o1
- pKi (Carbonic anhydrase 2): < 5.00
- pKi (Carbonic anhydrase 9): 7.61
- pKi (Carbonic anhydrase 1): < 5.00

Structure (SMILES): O=c1ccc2ccc(OCc3cn(-c4cccc(F)c4)nn3)cc2o1
- pKi (Carbonic anhydrase 2): < 5.00
- pKi (Carbonic anhydrase 9): 7.60

Structure (SMILES): COc1cccc(-n2cc(COc3ccc4ccc(=O)oc4c3)nn2)c1
- pKi (Carbonic anhydrase 2): < 5.00
- pKi (Carbonic anhydrase 9): 7.63

Structure (SMILES): O=c1ccc2ccc(OCc3cn(-c4ccc(F)cc4)nn3)cc2o1
- pKi (Carbonic anhydrase 2): < 5.00
- pKi (Carbonic anhydrase 9): 7.62

Structure (SMILES): O=C(O)c1ccc(-n2cc(COc3ccc4ccc(=O)oc4c3)nn2)cc1
- pKi (Carbonic anhydrase 2): 7.00
- pKi (Carbonic anhydrase 9): 7.54

Structure (SMILES): NS(=O)(=O)c1ccc(-n2cc(COc3ccc4ccc(=O)oc4c3)nn2)cc1
- pKi (Carbonic anhydrase 2): < 5.00
- pKi (Carbonic anhydrase 9): 7.84

Structure (SMILES): Cc1cc(=O)oc2cc(-n3cc(COc4ccc5ccc(=O)oc5c4)nn3)ccc12
- pKi (Carbonic anhydrase 2): < 5.00
- pKi (Carbonic anhydrase 9): 7.64
- pKi (Carbonic anhydrase 1): < 5.00

Structure (SMILES): Cc1cc(=O)oc2cc(-n3cc(CNc4ccccc4)nn3)ccc12
- pKi (Carbonic anhydrase 2): 5.01
- pKi (Carbonic anhydrase 9): 7.46

Second part, the compound after the results:

- pKi (Carbonic anhydrase 2): < 5.00
- pKi (Carbonic anhydrase 9): 7.51
- pKi (Carbonic anhydrase 1): < 5.00
Structure (SMILES): O=c1ccc2ccc(OCc3cn(-c4cccc(Cl)c4)nn3)cc2o1

- pKi (Carbonic anhydrase 2): < 5.00
- pKi (Carbonic anhydrase 9): 7.56
- pKi (Carbonic anhydrase 1): < 5.00
Structure (SMILES): O=c1ccc2ccc(OCc3cn(-c4cccc(Br)c4)nn3)cc2o1

- pKi (Carbonic anhydrase 2): < 5.00
Structure (SMILES): O=c1ccc2ccc(OCc3cn(-c4ccc(C(F)(F)F)cc4)nn3)cc2o1

- pKi (Carbonic anhydrase 2): < 5.00
- pKi (Carbonic anhydrase 9): 7.57
Structure (SMILES): O=c1ccc2ccc(OCc3cn(-c4ccc(O)cc4)nn3)cc2o1

- pKi (Carbonic anhydrase 2): < 5.00
- pKi (Carbonic anhydrase 9): 7.48
Structure (SMILES): Cc1cc(=O)oc2cc(-n3cc(COc4ccccc4)nn3)ccc12

- pKi (Carbonic anhydrase 2): < 5.00
Structure (SMILES): Cc1cc(=O)oc2cc(-n3cc(CSc4ccccc4)nn3)ccc12
